Laboratory results reported in the NIST ThermoML archive (doi:10.1021/je400004j).
± gives the expanded uncertainty stated by the source.

Assay: xn = mol fraction of the nth substance listed
Conditions: 298.15 K, Ring tensiometer

Row | SMILES | surface tension liquid-gas (x1 = 0.1) [mN/m] | surface tension liquid-gas (x1 = 0.2) [mN/m] | surface tension liquid-gas (x1 = 0.3) [mN/m] | surface tension liquid-gas (x1 = 0.4) [mN/m] | surface tension liquid-gas (x1 = 0.5) [mN/m] | surface tension liquid-gas (x1 = 0.6) [mN/m] | surface tension liquid-gas (x1 = 0.7) [mN/m] | surface tension liquid-gas (x1 = 0.8) [mN/m] | surface tension liquid-gas (x1 = 0.9) [mN/m] | surface tension liquid-gas (x1 = 1) [mN/m] | surface tension liquid-gas (x1 = 0.02) [mN/m] | surface tension liquid-gas (x1 = 0.04) [mN/m] | surface tension liquid-gas (x1 = 0.08) [mN/m] | surface tension liquid-gas (x1 = 0.12) [mN/m] | surface tension liquid-gas (x1 = 0.14) [mN/m]
1 | CCOP(=O)([O-])OCC.CCn1cc[n+](CC)c1 [1,3-diethyl-1H-imidazol-3-ium diethyl phosphate] + CCO | 22.6 ± 0.3 | 23.4 ± 0.4 | 24.6 ± 0.4 | 26.3 ± 0.4 | 27.8 ± 0.4 | 29.6 ± 0.4 | 31.1 ± 0.4 | 32.5 ± 0.5 | 34.1 ± 0.5 | 35.5 ± 0.5 | – | – | – | – | –
2 | CCOP(=O)([O-])OCC.CCn1cc[n+](CC)c1 [1,3-diethyl-1H-imidazol-3-ium diethyl phosphate] + CO | 26.4 ± 0.4 | 28.6 ± 0.4 | 30.3 ± 0.4 | 31.6 ± 0.5 | 33 ± 0.5 | 34 ± 0.5 | 34.4 ± 0.5 | 36.1 ± 0.5 | 35.9 ± 0.5 | 35.5 ± 0.5 | – | – | – | – | –
3 | CCOP(=O)([O-])OCC.CCn1cc[n+](CC)c1 [1,3-diethyl-1H-imidazol-3-ium diethyl phosphate] + O | 40.7 ± 0.7 | 37.4 ± 0.5 | 37.2 ± 0.5 | 36.6 ± 0.5 | 36.4 ± 0.5 | 36.2 ± 0.5 | 36 ± 0.5 | 36.1 ± 0.5 | 35.9 ± 0.5 | 35.5 ± 0.5 | – | – | – | – | –
4 | COP(=O)([O-])OC.Cn1cc[n+](C)c1 [1,3-dimethylimidazolium dimethylphosphate] + CCO | 23.2 ± 0.4 | 24.5 ± 0.4 | 26.1 ± 0.4 | 28.2 ± 0.4 | 30.5 ± 0.4 | 32.7 ± 0.5 | 35 ± 0.5 | 37.5 ± 0.5 | 41.4 ± 0.6 | 48.4 ± 0.6 | – | – | – | – | –
5 | COP(=O)([O-])OC.Cn1cc[n+](C)c1 [1,3-dimethylimidazolium dimethylphosphate] + CO | 26.9 ± 0.4 | 30.4 ± 0.4 | 33.1 ± 0.5 | 35.7 ± 0.5 | 38.1 ± 0.5 | 40 ± 0.5 | 41.6 ± 0.6 | 43.6 ± 0.6 | 46.2 ± 0.6 | 48.4 ± 0.6 | – | – | – | – | –
6 | COP(=O)([O-])OC.Cn1cc[n+](C)c1 [1,3-dimethylimidazolium dimethylphosphate] + O | 55.7 ± 0.8 | 51.8 ± 0.7 | 50.6 ± 0.7 | 50 ± 0.7 | 49.8 ± 0.7 | 49.3 ± 0.7 | 49.1 ± 0.7 | 48.9 ± 0.7 | 48.6 ± 0.6 | 48.4 ± 0.6 | 67 ± 0.9 | 64.2 ± 0.9 | 59.5 ± 0.8 | 53.6 ± 0.7 | 52.2 ± 0.7
7 | CCCCn1cc[n+](CC)c1.CCOP(=O)([O-])OCC [1-butyl-3-ethyl-1H-imidazol-3-ium diethyl phosphate] + CCO | 22.6 ± 0.3 | 23.6 ± 0.4 | 24.7 ± 0.4 | 26.1 ± 0.4 | 27.6 ± 0.4 | 28.5 ± 0.4 | 29.5 ± 0.4 | 30.5 ± 0.4 | 31.4 ± 0.4 | 32.2 ± 0.5 | – | – | – | – | –
8 | CCCCn1cc[n+](CC)c1.CCOP(=O)([O-])OCC [1-butyl-3-ethyl-1H-imidazol-3-ium diethyl phosphate] + CO | 26.1 ± 0.4 | 28.4 ± 0.4 | 29.8 ± 0.4 | 30.6 ± 0.4 | 30.9 ± 0.4 | 31.1 ± 0.4 | 31.4 ± 0.4 | 32.3 ± 0.5 | 32.2 ± 0.5 | 32.2 ± 0.5 | – | – | – | – | –
9 | CCCCn1cc[n+](CC)c1.CCOP(=O)([O-])OCC [1-butyl-3-ethyl-1H-imidazol-3-ium diethyl phosphate] + O | 35.9 ± 0.5 | 33.1 ± 0.5 | 32.9 ± 0.5 | 32.8 ± 0.5 | 32.6 ± 0.5 | 32.5 ± 0.5 | 32.3 ± 0.5 | 32.3 ± 0.5 | 32.2 ± 0.5 | 32.2 ± 0.5 | 47.4 ± 1.6 | 42.4 ± 0.6 | 37.8 ± 0.6 | 35.5 ± 0.5 | 35 ± 0.5
10 | CCCCn1cc[n+](C)c1.COP(=O)([O-])OC [1-butyl-3-methyl-1H-imidazolium dimethylphosphate] + CCO | 22.8 ± 0.3 | 23.6 ± 0.4 | 25 ± 0.4 | 26.9 ± 0.4 | 28.5 ± 0.4 | 30.5 ± 0.4 | 32.3 ± 0.5 | 34 ± 0.5 | 36 ± 0.5 | 38 ± 0.5 | – | – | – | – | –
11 | CCCCn1cc[n+](C)c1.COP(=O)([O-])OC [1-butyl-3-methyl-1H-imidazolium dimethylphosphate] + CO | 26.5 ± 0.4 | 29.2 ± 0.4 | 30.8 ± 0.4 | 32.3 ± 0.5 | 33.8 ± 0.5 | 35.1 ± 0.5 | 35.9 ± 0.5 | 38 ± 0.5 | 38.1 ± 0.5 | 38 ± 0.5 | – | – | – | – | –
12 | CCCCn1cc[n+](C)c1.COP(=O)([O-])OC [1-butyl-3-methyl-1H-imidazolium dimethylphosphate] + O | 42.1 ± 0.6 | 40.9 ± 0.6 | 40.2 ± 0.5 | 39.4 ± 0.5 | 38.8 ± 0.5 | 38.3 ± 0.5 | 38.2 ± 0.5 | 38 ± 0.5 | 38.1 ± 0.5 | 38 ± 0.5 | – | – | – | – | –
13 | CCCCOP(=O)([O-])OCCCC.CCCCn1cc[n+](C)c1 [1-butyl-3-methylimidazolium dibutyl phosphate] + CCO | 22.5 ± 0.3 | 23.5 ± 0.4 | 24.5 ± 0.4 | 25.9 ± 0.4 | 26.6 ± 0.4 | 27.3 ± 0.4 | 27.8 ± 0.4 | 28.3 ± 0.4 | 28.8 ± 0.4 | 29.4 ± 0.4 | – | – | – | – | –
14 | CCCCOP(=O)([O-])OCCCC.CCCCn1cc[n+](C)c1 [1-butyl-3-methylimidazolium dibutyl phosphate] + CO | 26.4 ± 0.4 | 27.5 ± 0.4 | 28.1 ± 0.4 | 28.5 ± 0.4 | 28.8 ± 0.4 | 28.9 ± 0.4 | 29.1 ± 0.4 | 29.4 ± 0.4 | 29.5 ± 0.4 | 29.4 ± 0.4 | – | – | – | – | –
15 | CCCCOP(=O)([O-])OCCCC.CCCCn1cc[n+](C)c1 [1-butyl-3-methylimidazolium dibutyl phosphate] + O | 28.2 ± 0.6 | 28.9 ± 0.4 | 29 ± 0.4 | 29.1 ± 0.4 | 29.2 ± 0.4 | 29.3 ± 0.4 | 29.3 ± 0.4 | 29.4 ± 0.4 | 29.5 ± 0.4 | 29.4 ± 0.4 | – | – | – | – | –
